From US7029878B2, “Melanin concentrating hormone receptor chimeric and fusion proteins” (Merck & Co., Inc., priority 2000, dated 2006)
Values joined by “and” are separate entries in the source; they are usually repeats but may differ in a detail not shown here. Equal entries are not always repeated.

Experiments:
[1] = target: T1, HuLong/mMCH1R-1-EGFP (human long form/mouse species chimeric MCH1R-1-EGFP) (Homo sapiens, UniProt Q99705, A336T/R230K/V159M); assay: cAMP production (FlashPlate), transiently transfected CHO cells stimulated with human MCH; format: cell-based; conditions: HuLong/mMCH1R-1-EGFP vs wild-type human MCH1R long form; transient CHO
T1 construct: ID; NO; 14 (human long form/mouse species chimeric MCH1R-linker-EGFP); 12 amino acid linker […]; expressed in transfected cells; host or cells: CHO (transient) and HEK293 Aequorin (transient)
Method: Both HEK293 Aequorin (National Institutes of Health) and CHO mammalian cell lines were transiently transfected with the various MCH1R/GFP variant fusion constructs, as well as the appropriate control constructs. Transfection was performed using Lipofectamine 2000 (Gibco BRL) per the manufacturer recommended protocol. […] Aequorin bioluminescence is a representative measure of intracellular Ca^2+ mobilization. cAMP production was measured with the Adenylyl Cyclase Activation FlashPlate Assay (NEN Life Science Products, Inc.).

mouse MCH-1R-EGFP = assay: SPA-based Binding Assay, CHO cell membranes, [125I]Phe13Tyr19-MCH; conditions: displacement of [125I]Phe13Tyr19-MCH, stable CHO cell membranes
Excerpt: (§1) Wild-type CHO cells were transfected using SuperFect (Qiag.en) and either mouse MCH-1R-EGFP or human short/mouse species chimeric MCH-1R-EGFP. Forty-eight hours after transfection, transfected cells were subjected to positive selection for approximately ten days in media containing G418. Following selection, MCH-1R-EGFP expressing CHO cells were bulk sorted by Fluorescence Assisted Cell Sorting (FACS) for one or two rounds on the basis of fluorescence intensity to increase the population of cells expressing EGFP. Following bulk sorts, individual clones of varying fluorescence intensities were isolated by FACS and expanded.
Fluorometric Microvolume Assay Technology (FMAT) was initially employed to screen a large number of stable clones by whole cell binding with a fluorescently labeled MCH derivative (SymJz-MCH, PE Biosystems) to identify those clones with good specific binding windows.

mMCH-1R-EGFP = assay: cAMP flashplate assay of stable CHO cell clones; format: cell-based, mouse; conditions: human MCH, 15 minutes at 37° C., 10 μM forskolin; individual stable CHO clones; FIG. 2
Excerpt: FIG. 2 illustrates a cAMP flashplate assay of CHO cell clones stably expressing mMCH-1R-EGFP. […] Cells were then lysed and assayed for bound [^125I]cAMP.
as §1
The functional activity of these clones was evaluated with the cAMP Flashplate Assay (FIGS. 2 and 3).

## human MCH
[1]
  EC50 fold higher than that of corresponding wild-type control: approximately 7.5 fold
Mouse MCH-1R-EGFP
  IC50 with MCH compared with wild-type human short isoform: indistinguishable
mMCH-1R-EGFP
  EC50: 0.111 nM and 0.126 nM and 0.129 nM and 0.23 nM
